Reference: PMC6271975, “Structure-Activity Relationship Study of Sesquiterpene Lactones and Their Semi-Synthetic Amino Derivatives as Potential Antitrypanosomal Products” (Molecules, 2014)
“And” between values parts separate entries of the source, which are not always exact repeats. Equal values may be shown once. “Also recorded” adds a separate entry of the source. Where a name gives a salt, the structure may show the parent alone. Read-outs that look alike come from different tables or passages of the source.

Legend:
[1] = system: rat skeletal myoblasts (L6-cells); set-up: method as in PMID 22331812, PMID 24080104, PMID 21624443, PMID 22396915; conditions: cytotoxicity; previously reported compounds included for comparison; cited from earlier work
[2] = system: T. b. rhodesiense STIB900; experiment: Acute mouse sleeping sickness model (STIB 900); format: in vivo, NMRI mice; conditions: for signs of toxicity in mice: acute mouse model; for survival: po, average of all mice, untreated controls euthanized at day 10 post infection
Description: This model mimics the first stage of the human African trypanosomiasis. Adult female NMRI mice were purchased from Janvier (St. Berthevin, France). They weighed between 20 and 25 g at the beginning of the study and were kept under standard conditions at 22 °C and 60%–70% humidity in macrolon type III cages with food pellets and water ad libitum. […] The samples were first dissolved in 100% DMSO, followed by addition of distilled H2O to a final DMSO concentration of 10%. For determination of the in vivo antitrypanosomal activity, mice were infected intraperitoneally with 1 × 10^4 STIB900 bloodstream forms. Experimental groups of four mice were treated orally once a day on four consecutive days from day 3 to day 6 post infection. A control group of four mice was infected, but remained untreated. The determination of the parasitaemia was done on day 7 post infection. […] Five μL of this mixture were transferred to a glass slide and covered with an 18 × 18 mm cover slide. The sample was examined under a light microscope (200-fold magnification) and parasites were counted in 3 of the 16 squares of the grid.

[3] = system: T. b. rhodesiense STIB900; set-up: method as in PMID 22331812, PMID 24080104; conditions: intraperitoneal, 10 mg/kg/b.i.d. for four consecutive days; cited from earlier work
[4] = system: T. b. rhodesiense STIB 900 bloodstream forms; set-up: method as in PMID 22331812, PMID 24080104, PMID 21624443, PMID 22396915; conditions: cited from earlier work; for SI (Selectivity Index): IC50 against L6 cells divided by IC50 against STIB 900 strain, previously reported compounds; for IC50: previously reported compounds included for comparison, compound 9 tested once, read-out: T. brucei STIB 900 IC50
[5] = system: T. b. rhodesiense STIB 900 bloodstream forms; experiment: In vitro antitrypanosomal Alamar Blue assay; format: cell-based, Trypanosoma brucei rhodesiense
Description: Evaluation of in vitro antiprotozoal activity against T. b. rhodesiense was done using the Alamar Blue assay to determine IC50s as previously described. Serial threefold dilution were prepared in 96-well micro titre plates, and 4000 T. b. rhodesiense STIB 900 bloodstream forms in 50 μL were added to each well except for the negative controls. Melarsoprol (Arsobal®, purity > 95%, Sanofi-Aventis, Meyrin, Switzerland) was used as reference drugs. […] The IC50 values were calculated from the sigmoidal growth inhibition curves using Softmax Pro software (Molecular Devices).

[6] = system: rat skeletal myoblasts (L6-cells); experiment: cells; format: cell-based
Description: The cytotoxicity assay was performed with rat skeletal myoblasts (L6-cells) seeded in 100 μL RPMI 1640 in 96-well micro titre plates, using the Alamar Blue assay described above. After 24 h the medium was removed and replaced by 100 μL of fresh RPMI 1640 with serial threefold drug dilution. Podophyllotoxin (purity > 95%, Sigma-Aldrich) was used as a reference drug. After 70 h of incubation under a humidified 5% CO2 atmosphere, 10 μL of the Alamar blue marker (see above) was added to all wells. The plates were incubated for an additional 2 h. A Spectramax Gemini XS micro plate fluorescence reader (Molecular Devices) was used to read the plates using an excitation wavelength of 536 nm and an emission wavelength of 588 nm. The IC50s were calculated from the sigmoidal growth inhibition curves using Softmax Pro software (Molecular Devices).

| SMILES | IC50 [1] | signs of toxicity in mice ([2]; oral administration) | parasitemia on day 7 after infection ([2]; oral, 50 mg/kg body weight/day, four mice) | survival ([2]; 4 × 50 mg/kg) | cure of mice [3] | parasitemia [3] | SI (Selectivity Index) [4] | IC50 [4] | fold lower antitrypanosomal activity as compared to 1 ([5]; compared to compound 1) | fold lower cytotoxicity as compared to 1 ([6]; compared to compound 1) | in vivo efficacy ([2]; oral administration, mean survival time versus control) | survival ([2]; 4 × 25 mg/kg) | IC50 ([5]; Trypanosoma brucei, 70 h incubation, average of three independent assays, read-out: T. brucei STIB 900 IC50) | IC50 ([6]; Rattus norvegicus, L6, cytotoxicity, 70 h incubation, average of three independent assays, read-out: L6 cells IC50) |
| --- | --- | --- | --- | --- | --- | --- | --- | --- | --- | --- | --- | --- | --- | --- |
| C=C(CO)C(=O)O[C@H]1CC(=C)[C@@H]2C[C@H](O)C(=C)[C@@H]2[C@H]2OC(=O)C(=C)[C@@H]21 [Compound 1, Cynaropicrin] | 2.2 ± 0.3 µM | euthanized on day 10 post infection due to obvious signs of cytotoxicity | reduced parasitemia | 9.5 days | not able to cure the mice | parasitemia was decreased over several days | 7.8 | 0.3 ± 0.001 µM | – | – | – | – | – | – |
| C=C1CC(O)C2C(=C)C(=O)OC2C2C(=C)C(O)CC12 (stereo not shown) [Compound 5, Deacylcynaropicrin] | 19 µM and 19.2 µM | – | – | – | – | – | 3.9 | 4.9 ± 0.34 µM | 16 fold | nine | – | – | – | – |
| C=C(CO)C(=O)OC1CC(=C)C2CC(O)C(=C)C2C2OC(=O)C(CN(C)C)C12 (stereo not shown) [Compound 19, Cynaropicrin dimethylamine adduct hydrochloride] | – | less signs of toxicity | – | 10 days | – | – | – | – | – | – | no in vivo efficacy; also recorded: did not show any in vivo efficacy | 8.5 days | 0.5 ± 0.003 µM | 5.2 ± 1.3 µM |
